Assay results: patent US8252532B2 (University of Connecticut, priority 2006, dated 2012)

How the values were obtained:
[1] = system: human granulosa/luteal cells; assay: Apoptotic nuclei in human granulosa/luteal cells after serum withdrawal (TUNEL, in situ DNA staining); format: cell-based
Description: After the oocytes were removed, follicular aspirates were pooled and centrifuged at 250×g for 10 minutes. The cell pellet was resuspended in serum-free culture medium, layered on HISTOPAQUE-1077 and centrifuged for 30 minutes at 400×g. After centrifugation, the opaque interface containing the granulosa/luteal cells was carefully aspirated and transferred into a 15 ml sterile conical centrifuge tube. The cells were then washed by resuspending the cells in 12 ml of PBS and centrifuging them at 250×g for 10 minutes. This was repeated two additional times. The cell pellet was then resuspended in 1 ml of 0.25% trypsin-EDTA solution and incubated for 5 minutes to dissociate the cells. After trypsinization, 5 ml of serum-supplemented medium was added and the cells were centrifuged at 250×g for 10 minutes. The cells were then resuspended in serum-supplemented medium, counted in a hemacytometer and resuspended to yield a final concentration 1 million cells/ml.
Plastic lab-tek slides (BD Bioscience, Bedford, Mass.), which had been previously coated with Growth Factor Reduced Matrigel Matrix (BD Bioscience, Bedford, Mass.), were plated at about 60,000 cells per well in 0.5 ml of serum-supplemented medium with 2 U/ml (IU) of hCG. The medium was changed after 24 hours to remove any remaining blood cells or non-attached granulosa/luteal cells and the cultures continued for two additional days. The cultures were then subjected to the various experimental treatments as outlined below.
Both TUNEL and in situ DNA staining were used to identify apoptotic nuclei. For the TUNEL assay human granulosa/luteal cells were cultured for 5 hours in serum-free medium and then fixed in 10% formalin. The cells were stained using the Apoptag Peroxidase In Situ kit staining according to manufacture's instructions (Chemicon, Temecula, Calif.). In situ DNA staining was done by adding hydroethidine directly to the culture medium at a final concentration of 3.5 μg/ml. The cultures were incubated for 15 minutes at room temperature in the dark. After staining, the cells observed under epi-fluorescent optics. Under these conditions only cells with condensed or fragmented nuclei were stained intensely with hydroethidine. These cells were considered to be apoptotic in accordance with prior publications in the field. At least 100 cells/culture well were counted and the percentage of apoptotic nuclei in each well determined.
Human granulosa/luteal cells were plated on lab tek slides and cultured for three days as previously described. […] After culture the cells were raised in Krebs/Hepes buffer and stained to detect apoptotic nuclei as taught by Engmann et al., J. of Clinical Endocrinology and Metabolism 91(12): 4962-4968 (2006). One hundred cells in each chamber were counted and the percentage of apoptotic nuclei determined as previously described.

Ovcar-3 cells = assay: Apoptotic nuclei in Ovcar-3 cells (DAPI staining); format: cell-based, human; settings: for effect on CDDP-induced apoptosis: simultaneous treatment with CDDP
Description: In order to assess the effects of CDDP, P4 and PGRMC1's role in regulating the viability of ovarian cancer cells, Ovcar-3 cells were used. Ovcar-3 cells were maintained in culture as described by Kim et al (23). Briefly, Ovcar-3 cells were cultured in RPMI-1640 medium (Invitrogen, Grand Island, N.Y.) supplemented with 10% fetal bovine serum (HyClone, Logan, Utah), 100 U/ml penicillin G, 100 ug/ml streptomycin (Invitrogen, Grand Island, N.Y.), at 37° C. in a humidified atmosphere of 5% CO2 incubator. The Ovcar-3 cells were cultured for 72 hours before each experiment.
PGRMC1 siRNA treatment was used to deplete PGRMC1 levels (28). In this protocol, PGRMC1 depletion was performed by transfecting PGRMC1 siRNA using siPORT NeoFX transfection protocol outlined by Ambion. Studies were conducted in which either scramble (control) siRNA (Cat#: AM4611) or one of three pre-designed human PGRMC1 siRNAs (Ambion siRNA ID#: 18430, 18340, 18248) were transfected at a concentration of 30 nM. Levels of PGRMC1 mRNA and protein were assessed by real-time PCR and western blot, respectively as previously described. In addition and immunocytochemical analysis confirmed that PGRMC1 siRNA (ID#: 18248) was an effective PGRMC1 siRNA. This siRNA targeted Exon 1 of PGRMC1 (forward, 5′-[…]tt and reverse, 5′-[…]tt). Based on this, Ovcar-3 cells were cultured for 3 days and then treated for 3 days with either scramble or PGRMC1 siRNA (ID#: 18248). The cells were then treated for 24 h with CDDP (15 μM) and P4 (1 μM) and observed apoptosis as described below.
Finally, a blocking antibody study was conducted as previously described (25). Ovcar-3 were plated and cultured for 3 days as previously described. The cells were then washed and cultured for 24 h with serum-supplemented containing CDDP (15 μM) and P4 (1 μM) and either rabbit IgG (20 μg/ml) or the antibody to PGRMC1 (20 μg/ml). After culture the cells were rinsed in Krebs/Hepes buffer and stained to detect apoptotic nuclei as described below.
Regardless of the experimental design, in situ DNA staining was used to identify apoptotic nuclei by adding DAPI directly to the culture medium at a final concentration of 2 μg/ml. The cultures were incubated for 10 min at 37° C. in the dark. After staining, the cells were observed under epi-fluorescent optics. Under these conditions only cells with condensed or fragmented nuclei were stained intensely with DAPI. The DAPI-stained cells also stained with YOPRO-1, a well-known nuclear stain that identifies apoptotic cells (19, 25, 28). These cells were considered to be apoptotic (25). At least 100 cells/culture well were counted and the percentage of apoptotic nuclei in each well determined. For the data shown in FIGS. 12 and 15, cells were selected randomly. In FIG. 6 the apoptotic status (i.e. DAPI staining; blue fluorescence) was determined for 100 transfected cells per well as indicated by their GFP (i.e. green) fluorescence.

PGRMC1 = PGRMC1 mRNA and protein levels in Ovcar-3 cells after siRNA (real-time PCR, western blot, immunocytochemistry); format: cell-based, human; settings: 72 h treatment; vs scramble control
Description: Real Time PCR. Quantitative measurements of PGR and PGRMC1 mRNA were made on cDNA samples provided by OriGene. […] Primers were evaluated with NCBI blast to confirm product specificity and products were designed to cross intron/exon borders. Primers used were: PGR forward [NT] ID NO: 13) and reverse [NT] ID NO: 14) and PGRMC-1 forward [NT] ID NO: 15) and reverse [NT] ID NO: 16). Quantitative real time PCR was performed on the MyiQ Single-Color Real-Time PCR Detection System (Bio-Rad, Hercules, Calif.). Samples were resuspended in twenty-five μl of the iQ SyberGreen Supermix (Bio-Rad) containing appropriate primers. Relative gene expression was evaluated with Bio-Rad iQ5 software using the ΔCT method (24). Each gene was evaluated on two separate identical array plates, which were loaded with equal amounts of cDNA per well as described by the manufacturer. End products were also run on agarose gels to confirm product size. Immunohistochemistry and immunocytochemistry were also used to assess the localization of PGRMC1 in formalin-fixed paraffin-embedded tissue sections of ovarian cancers and Ovcar-3 cells, respectively. […] Levels of PGRMC1 mRNA and protein were assessed by real-time PCR and western blot, respectively as previously described. […]

With `CC(=O)[C@H]1CC[C@H]2[C@@H]3CCC4=CC(=O)CC[C@]4(C)[C@H]3CC[C@]12C` [progesterone, 4-Pregnene-3,20-dione] the “effect on apoptosis due to serum-withdrawal in presence of IgG or IgY” value ([1]; 1 μM progesterone, IgG or IgY control) was “suppressed apoptosis”, the “effect on apoptosis due to serum withdrawal” value ([1]; all doses tested) was “suppressed apoptosis” and the “suppression of serum-withdrawal induced apoptosis in presence of RU486” value ([1]; progesterone 1 μM, RU486 5 μM) was “still capable of suppressing serum-withdrawal induced apoptosis”. For the same molecule, the “ability to override the effect of RU486” value ([1]; progesterone 1 μM, RU486 25 and 50 μM) was “could not override the effect of RU486”, the “lowest effective dose suppressing apoptosis” value ([1]; serum-free medium) was 10 nM and the “reduction of the killing effect of CDDP” value (Ovcar-3 cells; addition of P4 to CDDP in serum) was “about 40%”. The “concentration of maximum effect on inhibition of apoptosis induced by serum withdrawal” value (Ovcar-3 cells; serum withdrawal) was ~1 µM, the “effect on rate of apoptosis in serum-free media” value (Ovcar-3 cells; serum-free media for 5 h, p<0.05) was “attenuated” and the “effect on CDDP-induced apoptosis” value (Ovcar-3 cells; 5 h of culture, p<0.05) was “attenuated”. The “effect on CDDP-induced apoptosis” value (Ovcar-3 cells; 24 h of culture, p<0.05) was “attenuated”.
In the case of “PGRMC1 siRNA (ID#: 18248): Ambion human PGRMC1 siRNA targeting Exon 1, nucleotides 365-386; SEQ ID NO: 7 and 8 (chain 1 GGUGUUCGAUGUGACCAAATT; chain 2 UUUGGUCACAUCGAACACCTT; chemistry not given here)”, the “enhancement of the killing effect of CDDP in the presence of P4” value (Ovcar-3 cells; PGRMC1 depleted with siRNA, CDDP and P4) is reported as ≥ 50%, the “effect on P4's ability to inhibit CDDP-induced apoptosis” value (Ovcar-3 cells; siRNA 3 days, then 24 h CDDP (15 μM) and P4 (1 μM), p<0.05) is reported as “attenuated” and the “PGRMC1 levels by immunocytochemical analysis” value (PGRMC1) is reported as “suppress PGRMC1 levels”.
For `N.N.[Cl][Pt][Cl]` [CDDP, cis-diamminedichloroplatinum(II)], the “percentage of cells that undergo apoptosis (dose dependence)” value (Ovcar-3 cells; 10% fetal bovine serum, FIG. 12B) was “dose-dependent increase” and the “percentage of cells in which apoptosis is induced” value (Ovcar-3 cells; in the presence of serum, within 24 h) was 40 to 60%.
With `CC#C[C@]1(O)CC[C@H]2[C@@H]3CCC4=CC(=O)CCC4=C3[C@@H](c3ccc(N(C)C)cc3)C[C@@]21C` [RU486] the “percentage of apoptotic nuclei” value ([1]; 25 and 50 μM doses of RU486) was “greater than 70%”.
